The source of these data is ChEMBL document CHEMBL1150322, “Aminopyrazine CB1 receptor inverse agonists” (Bioorg Med Chem Lett, 2008).

For data set [1], the target named is T1, Cannabinoid receptor 1 (Homo sapiens, UniProt P21554). In kind it is functional, cell-based, Sf9.
Description: Antagonist activity at human CB1 receptor expressed in SF9 cells assessed as inhibition of CP-55940-stimulated GTPgammaS binding
The target of data set [2] is CYP3A4 (Homo sapiens, UniProt P08684). Put plainly: in vitro. As to conditions: human liver microsomes, probe midazolam. For orientation: Microsomes from liver hold many membrane-bound enzymes, among them those of drug oxidation.
CYP3A4, sequence (P08684 whole entry): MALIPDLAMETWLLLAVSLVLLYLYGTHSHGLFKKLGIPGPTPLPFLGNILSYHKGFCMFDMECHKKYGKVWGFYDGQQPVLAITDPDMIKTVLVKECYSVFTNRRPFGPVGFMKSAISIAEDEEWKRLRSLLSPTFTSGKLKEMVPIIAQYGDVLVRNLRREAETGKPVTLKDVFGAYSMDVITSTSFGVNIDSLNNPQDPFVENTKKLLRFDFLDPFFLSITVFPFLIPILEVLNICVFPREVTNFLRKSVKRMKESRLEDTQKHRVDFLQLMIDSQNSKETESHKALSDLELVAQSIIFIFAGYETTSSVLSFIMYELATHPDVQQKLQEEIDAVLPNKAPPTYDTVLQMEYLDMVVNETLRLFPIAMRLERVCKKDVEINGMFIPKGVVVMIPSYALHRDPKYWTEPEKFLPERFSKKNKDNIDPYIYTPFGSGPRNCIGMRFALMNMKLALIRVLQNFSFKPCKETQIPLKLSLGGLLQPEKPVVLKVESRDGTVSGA
Data set [3] can be described thus: physchem. The conditions noted are these: aqueous, pH 7.4.
Description: Aqueous solubility at pH 7.4
For data set [4], the target named is Cannabinoid receptor 2 (Homo sapiens, UniProt P34972).
Cannabinoid receptor 2, sequence (P34972 whole entry): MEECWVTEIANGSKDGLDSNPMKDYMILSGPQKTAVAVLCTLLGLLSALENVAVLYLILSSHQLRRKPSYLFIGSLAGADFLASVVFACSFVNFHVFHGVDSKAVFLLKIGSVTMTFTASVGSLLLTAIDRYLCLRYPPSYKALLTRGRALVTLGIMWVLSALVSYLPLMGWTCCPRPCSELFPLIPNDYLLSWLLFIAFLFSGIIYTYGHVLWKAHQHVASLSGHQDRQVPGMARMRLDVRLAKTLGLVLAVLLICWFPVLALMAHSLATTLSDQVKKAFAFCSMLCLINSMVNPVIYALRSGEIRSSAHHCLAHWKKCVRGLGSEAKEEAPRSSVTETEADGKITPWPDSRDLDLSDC
Description: Antagonist activity at human CB2 receptor in SF9 cells assessed as inhibition of CP-55940-stimulated GTPgammaS binding
Data set [5] deals with Cannabinoid receptor 1 (Rattus norvegicus, UniProt P20272).
Cannabinoid receptor 1 (Rattus norvegicus, UniProt P20272), sequence (P20272 whole entry): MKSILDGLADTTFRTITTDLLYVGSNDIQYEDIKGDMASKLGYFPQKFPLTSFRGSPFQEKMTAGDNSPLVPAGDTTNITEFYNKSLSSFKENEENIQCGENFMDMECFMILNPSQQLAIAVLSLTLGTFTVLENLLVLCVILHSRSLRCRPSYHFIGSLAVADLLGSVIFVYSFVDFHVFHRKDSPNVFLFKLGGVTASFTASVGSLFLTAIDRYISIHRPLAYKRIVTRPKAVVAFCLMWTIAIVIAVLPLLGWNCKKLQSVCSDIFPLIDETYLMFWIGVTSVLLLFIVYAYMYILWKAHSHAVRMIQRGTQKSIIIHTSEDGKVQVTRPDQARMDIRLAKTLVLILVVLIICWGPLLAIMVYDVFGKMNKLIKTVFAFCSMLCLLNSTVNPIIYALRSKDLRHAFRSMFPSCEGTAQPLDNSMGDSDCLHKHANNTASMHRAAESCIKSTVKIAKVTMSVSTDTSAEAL
Description: Antagonist activity at rat CB1 receptor in SF9 cells assessed as inhibition of CP-55940-stimulated GTPgammaS binding
The species entered for data set [6] is Homo sapiens. Description: Selectivity for human CB1 receptor over human CB2 receptor.
The test system of data set [7] is Rattus norvegicus. Put plainly: Inhibition of food intake in overnight fed diet-induced obesity rat model at 10 mg/kg, po after 24 hrs relative to control. In kind it is functional.
Data set [8] addresses T1, Cannabinoid receptor 1. In kind it is functional, cell-based, Sf9. The source holds these as a separate data set.
Description: Inverse agonist at human CB1 receptor expressed in SF9 cells assessed as decrease in GTPgammaS level
The species named for data set [9] is Rattus norvegicus. Put plainly: Decrease in blood glucose level in rat after 18 days. In kind it is functional, organism-based.
Data set [10] is described as follows: Drug level at Tmax in rat brain at 5 mg/kg, po qd after 19 days. As to conditions: read-out: Drug uptake. On the set-up: dose 5 mg/kg, route oral. In kind it is ADME, organism-based.
Data set [11] in a line: Drug level in rat plasma 5 mg/kg, po qd after 19 days measured 17 hrs after last dose. In kind it is ADME, organism-based. On the set-up: dose 5 mg/kg, route oral. The conditions noted are these: read-out: Drug uptake.
The species named for data set [12] is Rattus norvegicus. Description: Decrease in blood insulin level in rat after 18 days. In kind it is functional, organism-based.
Data set [13] concerns Homo sapiens. Put plainly: Ex vivo receptor occupancy by displacement of [3H]CP-55940 from human CB1 receptor in […] after 3 hrs. In kind it is functional. As to conditions: read-out: ID50 (the source's name). On the technique in general: Loss of bound radioactivity is the signal in a displacement assay; it reports binding, not function.
In data set [14] the target is Rattus norvegicus. Put plainly: Ex vivo receptor occupancy by displacement of [3H]CP-55940 from rat CB1 receptor in po dosed rat cerebellum membrane after 3 hrs. In kind it is functional, organism-based.
Data set [15] can be described thus: Drug level in rat brain at 5 mg/kg, po qd after 19 days measured 17 hrs after last dose. In kind it is ADME, organism-based. On the set-up: dose 5 mg/kg, route oral. The conditions noted are these: read-out: Drug uptake.
The species named for data set [16] is Rattus norvegicus. Description: animal or person. The conditions noted are these: po, 24 h, read-out: INH.
Description: Inhibition of food intake in overnight fed diet-induced obesity rat model at 5 mg/kg, po after 24 hrs relative to control
Data set [17] can be described thus: Drug level at Tmax in rat plasma at 5 mg/kg, po qd after 19 days. In kind it is ADME, organism-based. On the set-up: dose 5 mg/kg, route oral. The conditions noted are these: read-out: Drug uptake.
The subject of data set [18] is Rattus norvegicus. Put plainly: Reduction in cumulative food intake in subchronic diet-induced rat at 5 mg/kg, po qd after 18 days relative to control. In kind it is functional. On the set-up: scale not given: the % may be the effect or the level left.
Data set [19] deals with Rattus norvegicus. Put plainly: Reduction in body weight in subchronic diet-induced rat at 5 mg/kg, po qd after 18 days relative to control. In kind it is functional. The arrangement: scale not given: the % may be the effect or the level left.
For data set [20], the species on record is Rattus norvegicus. Put plainly: Decrease in blood leptin level in rat after 18 days. In kind it is functional, organism-based.
Data set [21] in a line: Drug level at Tmax in rat plasma at 1 mg/kg, po qd after 19 days. As to conditions: read-out: Drug uptake. The arrangement: dose 1 mg/kg, route oral. In kind it is ADME, organism-based.
Data set [22] relates to Rattus norvegicus. Description: Reduction in cumulative food intake in subchronic diet-induced rat at 1 mg/kg, po qd after 18 days relative to control. In kind it is functional. The arrangement: scale not given: the % may be the effect or the level left.
A short description of data set [23]: Drug level in rat brain at 1 mg/kg, po qd after 19 days measured 17 hrs after last dose. In kind it is ADME, organism-based. The arrangement: dose 1 mg/kg, route oral. The conditions noted are these: read-out: Drug uptake.
Data set [24] is described as follows: Drug level in rat plasma 1 mg/kg, po qd after 19 days measured 17 hrs after last dose. In kind it is ADME, organism-based. On the set-up: dose 1 mg/kg, route oral. The conditions noted are these: read-out: Drug uptake.
The subject of data set [25] is Rattus norvegicus. Description: Reduction in body weight in subchronic diet-induced rat at 1 mg/kg, po qd after 18 days relative to control. In kind it is functional. The arrangement: scale not given: the % may be the effect or the level left.
The nature of data set [26]: Drug level at Tmax in rat brain at 1 mg/kg, po qd after 19 days. In kind it is ADME, organism-based. The arrangement: dose 1 mg/kg, route oral. As to conditions: read-out: Drug uptake.

In brackets after ≈: the same amount, converted by molar mass. Activity calls are given as the source filed them. No cut-off for these calls is given here.

T1 sequence (P21554 whole entry): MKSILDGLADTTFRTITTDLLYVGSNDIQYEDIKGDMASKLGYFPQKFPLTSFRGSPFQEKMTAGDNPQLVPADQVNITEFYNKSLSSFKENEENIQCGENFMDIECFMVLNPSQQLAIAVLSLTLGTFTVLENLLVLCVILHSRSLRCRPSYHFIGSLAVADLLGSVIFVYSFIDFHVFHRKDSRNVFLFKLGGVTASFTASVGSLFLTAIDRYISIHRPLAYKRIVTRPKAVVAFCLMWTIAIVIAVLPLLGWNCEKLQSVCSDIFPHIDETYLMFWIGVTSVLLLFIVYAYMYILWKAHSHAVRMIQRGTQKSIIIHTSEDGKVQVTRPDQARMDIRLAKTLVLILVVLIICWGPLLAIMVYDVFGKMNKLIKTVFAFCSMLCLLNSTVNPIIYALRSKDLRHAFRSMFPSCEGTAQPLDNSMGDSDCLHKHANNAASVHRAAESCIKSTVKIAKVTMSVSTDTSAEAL

Compound `CCNC1(C(N)=O)CCN(c2cnc(-c3ccc(Cl)cc3)c(-c3ccc(Cl)cc3Cl)n2)CC1` had a Ki in data set [1] of 0.91 nM. This compound registered an inhibition at 5 µM in [2] below 5%.
`CCNC1(C(N)=O)CCN(c2cnc(-c3ccc(C(F)(F)F)cc3)c(-c3ccnc(Cl)c3)n2)CC1`: in [1], the Ki was determined as 0.87 nM. In [3], this compound came in with a solubility of 25.5 µg/mL (≈ 50.5 µM). In data set [2], this compound had an inhibition at 5 µM below 5%.
Compound `CCNC1(C(N)=O)CCN(c2cnc(-c3ccc(Cl)cc3)c(-c3ccnc(Cl)c3)n2)CC1` registered a Ki in data set [1] of 0.67 nM. In addition, the concentration in solution in data set [3] (solubility) was 21.8 µg/mL (≈ 46.3 µM). In data set [2], this compound gave an inhibition at 5 µM of 54%.
On to `O=S1(=O)CCN(c2cnc(-c3ccc(C(F)(F)F)cc3)c(-c3ccncc3Cl)n2)CC1`, for which the Ki is 1900 nM in data set [4], 0.83 nM in data set [5] and 0.83 nM in data set [1]. Further, the Ratio Ki in data set [6] was above 2000. For the same compound, in data set [7], the inhibition in vivo at 10 mg/kg is 71%. Moreover, the solubility in data set [3] turned out to be 23 µg/mL (≈ 49.1 µM). Moreover, the inhibition at 5 µM in [2] was below 5%. The IC50 in [8] stood at 4.2 nM.
In the case of `CCC(=O)NC1CCN(c2cnc(-c3ccc(C(F)(F)F)cc3)c(-c3ccncc3Cl)n2)CC1`, the Ki in data set [1] amounted to 0.8 nM. Also, the concentration in solution in data set [3] (solubility) was 24 µg/mL (≈ 49 µM). In addition, in [2], 5 µM produced 11% inhibition.
`CCNC1(C(N)=O)CCN(c2cnc(-c3ccc(Cl)cc3)c(-c3ccccc3Cl)n2)CC1`: in data set [1], the Ki turned out to be 1.66 nM. For the same compound, in [3], the solubility is 1.25 µg/mL (≈ 2.66 µM). Moreover, in data set [2], the inhibition at 5 µM was determined as 9.7%.
On to `CCNC1(C(N)=O)CN(c2cnc(-c3ccc(C(F)(F)F)cc3)c(-c3ccnc(Cl)c3)n2)C1`, for which the Ki in data set [4] is above 50000 nM; in data set [5], 2.06 nM; in data set [1], 1.2 nM. For the same compound, the Ratio Ki in data set [6] is above 2000. The inhibition in vivo at 10 mg/kg in [7] is 58%. The same compound came in with a solubility in data set [3] of 38 µg/mL (≈ 79.7 µM). Besides, the inhibition at 5 µM in data set [2] was below 5%. In [8], this compound displayed an IC50 of 3.07 nM.
Turning to `CCNC1(C(N)=O)CCN(c2cnc(-c3ccc(OCC)cc3)c(-c3ccc(OCC)cc3)n2)CC1`, the Ki in data set [1] was found to be 2.84 nM. In addition, the inhibition at 5 µM in [2] was below 5%.
For `CCNC1(C(N)=O)CCN(c2cnc(-c3ccc(F)cc3)c(-c3ccc(Cl)cc3Cl)n2)CC1`, in that order: 1.75 nM and 20.5%.
In data set [1], `CCNC1(C(N)=O)CCN(c2cnc(-c3ccc(OCC)cc3)c(-c3ccccc3Cl)n2)CC1` displayed a Ki of 15 nM. Further, the solubility in data set [3] came to 1.2 µg/mL (≈ 2.5 µM). Moreover, the inhibition at 5 µM in data set [2] was found to be 10%.
In turn, `CCNC1(C(N)=O)CCN(c2cnc(-c3ccc(Cl)cc3)c(-c3ccc(C#N)cc3)n2)CC1` yielded a Ki in data set [1] of 32.3 nM. Further, the solubility in data set [3] stood at 36 µg/mL (≈ 78.1 µM).
`CCNC1(C(N)=O)CCN(c2cnc(-c3ccc(Cl)cc3)c(-c3ccncc3)n2)CC1`: in data set [1], the Ki was 9.81 nM. In data set [3], this compound had a solubility of 74.9 µg/mL (≈ 171 µM). This compound also displayed an inhibition at 5 µM in [2] of 71%.
In the case of `Cc1c(C(=O)NN2CCCCC2)nn(-c2ccc(Cl)cc2Cl)c1-c1ccc(Cl)cc1` [RIMONABANT], the outcome in [9] and in [12] was Active. Also, the concentration at 456 h in data set [10] worked out at 318 ng/mL. The concentration at 17 h in data set [11] came to 3 ng/mL; in [15], 65 ng/mL. For the same compound, the ED50 in data set [13] worked out at 0.5 mg/kg. In data set [14], the Ki turned out to be 1.1 nM. The solubility in data set [3] stood at 0.3 µg/mL (≈ 0.647 µM). The inhibition in vivo at 5 mg/kg in data set [16] worked out at 73%. Further, the Cmax in [17] worked out at 346 ng/mL. Further, the figures for the Activity in [18] and in data set [19] were 13.8% and 4.1%, respectively. For the same compound, the inhibition at 5 µM in [2] was below 5%.
`CC(C)C(=O)NC1CCN(c2cnc(-c3ccc(C(F)(F)F)cc3)c(-c3ccncc3Cl)n2)CC1`: the Activity result in data set [20] was “Dose-dependent effect”; in data set [22], 18.8%; in data set [18], 27.6%; in data set [19], 8.5%; in data set [25], 4.8%. For the same compound, the result in [9] and in data set [12] was Active. Besides, the Cmax came to 121 ng/mL in [21] and 346 ng/mL in [17]. For the same compound, the concentration at 456 h in data set [10] came to 630 ng/mL; in data set [26], 235 ng/mL. The concentration at 17 h in [11] was 142 ng/mL; in data set [23] it was 110 ng/mL; in data set [15], 253 ng/mL; in data set [24], 44.2 ng/mL. Further, the Ki is 4940 nM in data set [4], 0.41 nM in data set [5], 4.4 nM in data set [14] and 0.24 nM in data set [1]. The ED50 in data set [13] was found to be 0.3 mg/kg. For the same compound, the Ratio Ki in data set [6] was above 2000. For the same compound, the solubility in data set [3] amounted to 4.5 µg/mL (≈ 8.93 µM). Moreover, the inhibition in vivo at 5 mg/kg in data set [16] came to 80%. This compound displayed an inhibition at 5 µM in [2] below 5%. In addition, the IC50 in data set [8] came to 0.54 nM.

The Ki is a measure of affinity in units of concentration, obtained from inhibition or displacement. One may read the inhibition as the share of the control response that was lost under treatment. One may read the solubility as how much of the substance goes into solution per volume. For orientation: IC50 means the concentration that inhibits the measured activity by half.
